Test results published in the supplement of paper PMC11208160.

Test: recombinant UMI read abundance after kanamycin selection (control-corrected) (log10(CPM+1)); higher = more efficient recombination; extreme values may be limits of the assay; sequences stand for … in AGTGCAGAGAAAATCGGCCAGTTTTCTCTGCCTGCAGTCCGCATGCCGTGGGACCCCTTGGGTTCTAACCTGTTGCCTAGATTTATGCAGCGGACTGCCTTTCTCCCAAAGTGATAAACCGG…AGGTTGGTTTCACT; site = the 11-nt donor
In short: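 Sequenced counts of recombinant UMIs were turned into CPM, averaged across replicates and scaled with control-derived factors. The reported figure is log10(CPM+1). Those UMIs, each 12 nt long, tagged donor and donor-binding-loop pairs on a plasmid with a promoterless kanamycin gene, screened as a pool in Escherichia coli with IPTG (0.07 mM) plus kanamycin or without selection.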
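Further: IS621 bridge recombinase in Escherichia coli cells against a fixed T5 target plasmid.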

Compared with “GTCCCCGCATGGACCGGTTTTCCCGGTAATCCGTATTTGTA (site GTCCCCGCTTA)”, “GTCCCTACATGGACCGGTTTTCCCGGTAATCCGTATTTGAG (site ATCCCTACTCT)” is lower in “recombinant UMI read abundance (log10)” value: 1.13 for the first, 0.0134 for the second.

“GTCCCTACATGGACCGGTTTTCCCGGTAATCCGTATTTGAG (site CTCCCTACTCT)” and “GTCCCTACATGGACCGGTTTTCCCGGTAATCCGTATTTGAG (site GTCCCTACTCT)” are within 0.2 log units of each other in “recombinant UMI read abundance (log10)” value: 0.0129 for the first, 0.168 for the second.

Compared with “GTCCCTACATGGACCGGTTTTCCCGGTAATCCGTATTTGAG (site TTCCCTACTCT)”, “GTCGCCACATGGACCGGTTTTCCCGGTAATCCGTATTTGGA (site GTCGCCACTTC)” is higher in “recombinant UMI read abundance (log10)” value: 0.00698 for the first, 0.751 for the second.

Going from “GTCGGCACATGGACCGGTTTTCCCGGTAATCCGTATTTGAC (site GTCGGCACTGT)” to “GTCGGTACATGGACCGGTTTTCCCGGTAATCCGTATTTGAC (site GTAGGTACTGT)”, the “recombinant UMI read abundance (log10)” value falls from 2.04 to 0.298.

Compared with “GTCGGTACATGGACCGGTTTTCCCGGTAATCCGTATTTGAC (site GTCGGTACTGT)”, “GTCGGTACATGGACCGGTTTTCCCGGTAATCCGTATTTGAC (site GTGGGTACTGT)” is lower in “recombinant UMI read abundance (log10)” value: 1.32 for the first, 0 for the second.

“GTCGGTACATGGACCGGTTTTCCCGGTAATCCGTATTTGAC (site GTTGGTACTGT)” and “GTCGTCGCATGGACCGGTTTTCCCGGTAATCCGTATTTGCG (site GTAGTCGCTCG)” are within 0.2 log units of each other in “recombinant UMI read abundance (log10)” value: 0 for the first, 0.0332 for the second.

First: GTCGTCGCATGGACCGGTTTTCCCGGTAATCCGTATTTGCG (site GTCGTCGCTCG)
Second: GTCGTCGCATGGACCGGTTTTCCCGGTAATCCGTATTTGCG (site GTGGTCGCTCG)
The “recombinant UMI read abundance (log10)” value of the first is higher: 0.512 for the first, 0.00908 for the second.

Compared with “GTCGTCGCATGGACCGGTTTTCCCGGTAATCCGTATTTGCG (site GTTGTCGCTCG)”, “GTCGTTACATGGACCGGTTTTCCCGGTAATCCGTATTTGGC (site GTCGTTACTGC)” is higher in “recombinant UMI read abundance (log10)” value: 0.0186 for the first, 1.78 for the second.

“GTCTAAACATGGACCGGTTTTCCCGGTAATCCGTATTTGTG (site GTCTAAACTCA)” and “GTCTATACATGGACCGGTTTTCCCGGTAATCCGTATTTGGA (site GTCTATACTTC)” are within 0.2 log units of each other in “recombinant UMI read abundance (log10)” value: 1.09 for the first, 1.08 for the second.

Compared with “GTCTGATCATGGACCGGTTTTCCCGGTAATCCGTATTTGAA (site GTCTGATCTTT)”, “GTGAAAACATGGACCGGTTTTCCCGGTAATCCGTATTTGCT (site GAGAAAACTAG)” is lower in “recombinant UMI read abundance (log10)” value: 1.66 for the first, 0.918 for the second.

“GTGAAAACATGGACCGGTTTTCCCGGTAATCCGTATTTGCT (site GCGAAAACTAG)” and “GTGAAAACATGGACCGGTTTTCCCGGTAATCCGTATTTGCT (site GGGAAAACTAG)” are the same in “recombinant UMI read abundance (log10)” value: 0 for the first, 0 for the second.

Going from “GTGAAAACATGGACCGGTTTTCCCGGTAATCCGTATTTGCT (site GTGAAAACTAG)” to “GTGAAACCATGGACCGGTTTTCCCGGTAATCCGTATTTGAT (site GTGAAACCTAT)”, the “recombinant UMI read abundance (log10)” value falls from 1.46 to 0.

Compared with “GTGAGAACATGGACCGGTTTTCCCGGTAATCCGTATTTGCT (site GTGAGAACTAG)”, “GTGAGGGCATGGACCGGTTTTCCCGGTAATCCGTATTTGAA (site GTGAGGGCTTT)” is lower in “recombinant UMI read abundance (log10)” value: 2.25 for the first, 1.83 for the second.

Compared with “GTGATGGCATGGACCGGTTTTCCCGGTAATCCGTATTTGAT (site GTGATGGCTAT)”, “GTGATTCCATGGACCGGTTTTCCCGGTAATCCGTATTTGAC (site GTGATTCCTGT)” is lower in “recombinant UMI read abundance (log10)” value: 2.31 for the first, 1.95 for the second.

First: GTGCAAGCATGGACCGGTTTTCCCGGTAATCCGTATTTGGT (site GTGCAAGCTAC)
Second: GTGCAAGCATGGACCGGTTTTCCCGGTAATCCGTATTTGGT (site GTGCACGCTAC)
The “recombinant UMI read abundance (log10)” value of the first is higher: 1.28 for the first, 0.00225 for the second.

Compared with “GTGCAAGCATGGACCGGTTTTCCCGGTAATCCGTATTTGGT (site GTGCAGGCTAC)”, “GTGCAAGCATGGACCGGTTTTCCCGGTAATCCGTATTTGGT (site GTGCATGCTAC)” is lower in “recombinant UMI read abundance (log10)” value: 0.602 for the first, 0.222 for the second.

First: GTGCAGGCATGGACCGGTTTTCCCGGTAATCCGTATTTGTC (site GTGCAGGCTGA)
Second: GTGCATCCATGGACCGGTTTTCCCGGTAATCCGTATTTGCC (site GTGCATCCTGG)
The “recombinant UMI read abundance (log10)” value of the first is higher: 2.44 for the first, 0.749 for the second.

Compared with “GTGCATCCATGGACCGGTTTTCCCGGTAATCCGTATTTGGT (site GTGCATACTAC)”, “GTGCATCCATGGACCGGTTTTCCCGGTAATCCGTATTTGGT (site GTGCATCCTAC)” is higher in “recombinant UMI read abundance (log10)” value: 0.0234 for the first, 0.56 for the second.

First: GTGCATCCATGGACCGGTTTTCCCGGTAATCCGTATTTGGT (site GTGCATGCTAC)
Second: GTGCATCCATGGACCGGTTTTCCCGGTAATCCGTATTTGGT (site GTGCATTCTAC)
The “recombinant UMI read abundance (log10)” value of the first is lower: 0 for the first, 0.438 for the second.

Compared with “GTGCATGCATGGACCGGTTTTCCCGGTAATCCGTATTTGAT (site GTGCATGCTAA)”, “GTGCATGCATGGACCGGTTTTCCCGGTAATCCGTATTTGAT (site GTGCATGCTAC)” is higher in “recombinant UMI read abundance (log10)” value: 0.00938 for the first, 0.265 for the second.

Compared with “GTGCATGCATGGACCGGTTTTCCCGGTAATCCGTATTTGAT (site GTGCATGCTAG)”, “GTGCATGCATGGACCGGTTTTCCCGGTAATCCGTATTTGAT (site GTGCATGCTAT)” is higher in “recombinant UMI read abundance (log10)” value: 0.649 for the first, 2.34 for the second.

Compared with “GTGCATGCATGGACCGGTTTTCCCGGTAATCCGTATTTGGG (site GTGCATGCTAC)”, “GTGCATGCATGGACCGGTTTTCCCGGTAATCCGTATTTGGG (site GTGCATGCTCC)” is higher in “recombinant UMI read abundance (log10)” value: 0.00412 for the first, 0.746 for the second.

“GTGCATGCATGGACCGGTTTTCCCGGTAATCCGTATTTGGG (site GTGCATGCTGC)” and “GTGCATGCATGGACCGGTTTTCCCGGTAATCCGTATTTGGG (site GTGCATGCTTC)” are within 0.2 log units of each other in “recombinant UMI read abundance (log10)” value: 0 for the first, 0.0162 for the second.

Going from “GTGCATGCATGGACCGGTTTTCCCGGTAATCCGTATTTGTT (site GTGCATGCTAA)” to “GTGCATGCATGGACCGGTTTTCCCGGTAATCCGTATTTGTT (site GTGCATGCTAC)”, the “recombinant UMI read abundance (log10)” value falls from 2.04 to 0.0189.

“GTGCATGCATGGACCGGTTTTCCCGGTAATCCGTATTTGTT (site GTGCATGCTAG)” and “GTGCATGCATGGACCGGTTTTCCCGGTAATCCGTATTTGTT (site GTGCATGCTAT)” are within 0.2 log units of each other in “recombinant UMI read abundance (log10)” value: 1.48 for the first, 1.31 for the second.

Compared with “GTGCATTCATGGACCGGTTTTCCCGGTAATCCGTATTTGGT (site GTGCATACTAC)”, “GTGCATTCATGGACCGGTTTTCCCGGTAATCCGTATTTGGT (site GTGCATCCTAC)” is lower in “recombinant UMI read abundance (log10)” value: 0.361 for the first, 0.0125 for the second.

First: GTGCATTCATGGACCGGTTTTCCCGGTAATCCGTATTTGGT (site GTGCATGCTAC)
Second: GTGCATTCATGGACCGGTTTTCCCGGTAATCCGTATTTGGT (site GTGCATTCTAC)
The “recombinant UMI read abundance (log10)” value of the first is lower: 0 for the first, 1.99 for the second.

Compared with “GTGCCTGCATGGACCGGTTTTCCCGGTAATCCGTATTTGGT (site GTGCATGCTAC)”, “GTGCCTGCATGGACCGGTTTTCCCGGTAATCCGTATTTGGT (site GTGCCTGCTAC)” is higher in “recombinant UMI read abundance (log10)” value: 0.0028 for the first, 0.328 for the second.

“GTGCCTGCATGGACCGGTTTTCCCGGTAATCCGTATTTGGT (site GTGCGTGCTAC)” and “GTGCCTGCATGGACCGGTTTTCCCGGTAATCCGTATTTGGT (site GTGCTTGCTAC)” are within 0.2 log units of each other in “recombinant UMI read abundance (log10)” value: 0.00453 for the first, 0.00506 for the second.

Going from “GTGCTCACATGGACCGGTTTTCCCGGTAATCCGTATTTGAT (site GAGCTCACTAT)” to “GTGCTCACATGGACCGGTTTTCCCGGTAATCCGTATTTGAT (site GCGCTCACTAT)”, the “recombinant UMI read abundance (log10)” value falls from 0.557 to 0.322.

First: GTGCTCACATGGACCGGTTTTCCCGGTAATCCGTATTTGAT (site GGGCTCACTAT)
Second: GTGCTCACATGGACCGGTTTTCCCGGTAATCCGTATTTGAT (site GTGCTCACTAT)
The “recombinant UMI read abundance (log10)” value of the first is lower: 0.0156 for the first, 1.9 for the second.

Compared with “GTGCTTACATGGACCGGTTTTCCCGGTAATCCGTATTTGGC (site GTGCTTACTGC)”, “GTGGAGCCATGGACCGGTTTTCCCGGTAATCCGTATTTGAT (site GTGGAGCCTAT)” is lower in “recombinant UMI read abundance (log10)” value: 1.9 for the first, 0.00342 for the second.

Compared with “GTGGATACATGGACCGGTTTTCCCGGTAATCCGTATTTGTG (site GTGGATACTCA)”, “GTGGGGGCATGGACCGGTTTTCCCGGTAATCCGTATTTGTG (site GTGGAGGCTCA)” is lower in “recombinant UMI read abundance (log10)” value: 1.92 for the first, 1.07 for the second.

First: GTGGGGGCATGGACCGGTTTTCCCGGTAATCCGTATTTGTG (site GTGGCGGCTCA)
Second: GTGGGGGCATGGACCGGTTTTCCCGGTAATCCGTATTTGTG (site GTGGGGGCTCA)
The “recombinant UMI read abundance (log10)” value of the first is lower: 0.0124 for the first, 0.984 for the second.
